Measurements from patent US20180251431A1 (VERTEX PHARMACEUTICALS INCORPORATED, priority 2016, published 2018).

Test system: HEK293 cells
Assay: HEK293 VLCFA-LPC IC50 determination (13C-labeled C26:0 LPC by UHPLC/MS)
Format: cell-based, human
Conditions: Homo sapiens, HEK293, HEK293 cells; average of one or more replicates; read-out: Average HEK293 IC50
Method in brief: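 Suspension HEK293 cells (final 0.5 million/mL after mixing with equal volume) incubated 48 hours with compound plus 13C-acetate (1.0 mg/mL in added media), shaking at 37° C. Lipids extracted with hexane/isopropanol or methanol, C13:0 LPC standard. UHPLC/MS of 13C-labeled C26:0 LPC (638.500/104.100 m/z); IC50 by four-parameter fit.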

| Structure (SMILES) | IC50 [nM] |
| --- | --- |
| O=C(Nc1ccn(-c2ccnc(F)c2)n1)[C@@]1(c2ccccc2)CC12CCCC2 [Compound 150, (2S)-N-[1-(2-fluoro-4-pyridyl)pyrazol-3-yl]-2-phenyl-spiro[2.4]heptane-2-carboxamide] | < 50 |
| O=C(Nc1ccn(-c2ccnc(F)c2)n1)[C@@]1(c2ccccc2)CC12CCC2 [Compound 151, (2S)-N-[1-(2-fluoro-4-pyridyl)pyrazol-3-yl]-2-phenyl-spiro[2.3]hexane-2-carboxamide] | < 50 |
| O=C(Nc1ccn(-c2ccnc(F)c2)n1)C(c1ccccc1)C1CCCC1 (stereo not drawn) [Compound 152, 2-cyclopentyl-N-[1-(2-fluoro-4-pyridyl)pyrazol-3-yl]-2-phenyl-acetamide] | 1700 |
| O=C(Cc1ccccc1)Nc1ccn(-c2ccc(C(F)(F)F)cc2)n1 [Compound 153, 2-phenyl-N-[1-[4-(trifluoromethyl)phenyl]pyrazol-3-yl]acetamide] | > 5000 |
| O=C(Nc1ccn(-c2ccc(C(F)(F)F)cc2)n1)C1(c2ccccc2F)CC1 [Compound 154, 1-(2-fluorophenyl)-N-[1-[4-(trifluoromethyl)phenyl]pyrazol-3-yl]cyclopropanecarboxamide] | 360 |
| O=C(Cc1ccccc1F)Nc1ccn(-c2ccc(C(F)(F)F)cc2)n1 [Compound 155, 2-(2-fluorophenyl)-N-[1-[4-(trifluoromethyl)phenyl]pyrazol-3-yl]acetamide] | > 5000 |
| O=C(Nc1ccn(-c2ccc(C(F)(F)F)cc2)n1)C1(c2ccccc2)CC1 [Compound 156, 1-phenyl-N-[1-[4-(trifluoromethyl)phenyl]pyrazol-3-yl]cyclopropanecarboxamide] | > 2000 |
| O=C(Cc1ccccc1)Nc1ccn(-c2cccc(C(F)(F)F)c2)n1 [Compound 157, 2-phenyl-N-[1-[3-(trifluoromethyl)phenyl]pyrazol-3-yl]acetamide] | > 5000 |
| O=C(Cc1ccccc1F)Nc1ccn(-c2cccc(C(F)(F)F)c2)n1 [Compound 158, 2-(2-fluorophenyl)-N-[1-[3-(trifluoromethyl)phenyl]pyrazol-3-yl]acetamide] | 2900 |
| O=C(Nc1ccn(-c2cccc(C(F)(F)F)c2)n1)C1(c2ccccc2)CC1 [Compound 159, 1-phenyl-N-[1-[3-(trifluoromethyl)phenyl]pyrazol-3-yl]cyclopropanecarboxamide] | > 5000 |
| O=C(Cc1ccccc1)Nc1ccn(-c2cc(F)ccc2F)n1 [Compound 160, N-[1-(2,5-difluorophenyl)pyrazol-3-yl]-2-phenyl-acetamide] | > 5000 |
| O=C(Nc1ccn(-c2cc(F)ccc2F)n1)C1(c2ccccc2F)CC1 [Compound 161, N-[1-(2,5-difluorophenyl)pyrazol-3-yl]-1-(2-fluorophenyl)cyclopropanecarboxamide] | 980 |
| O=C(Cc1ccccc1F)Nc1ccn(-c2cc(F)ccc2F)n1 [Compound 162, N-[1-(2,5-difluorophenyl)pyrazol-3-yl]-2-(2-fluorophenyl)acetamide] | 740 |
| O=C(Nc1ccn(-c2cc(F)ccc2F)n1)C1(c2ccccc2)CC1 [Compound 163, N-[1-(2,5-difluorophenyl)pyrazol-3-yl]-1-phenyl-cyclopropanecarboxamide] | 4500 |
| O=C(Nc1ccn(-c2ccnc(F)c2)n1)[C@]1(c2ccccc2)CC12CCCC2 [Compound 164, (2R)-N-[1-(2-fluoro-4-pyridyl)pyrazol-3-yl]-2-phenyl-spiro[2.4]heptane-2-carboxamide] | > 5000 |
| CC1(C)CC1(C(=O)Nc1ccn(-c2ccnc(F)c2)n1)c1ccccc1 (stereo not drawn) [Compound 165, N-[1-(2-fluoro-4-pyridyl)pyrazol-3-yl]-2,2-dimethyl-1-phenyl-cyclopropanecarboxamide] | 50 |
| CCC1(C)CC1(C(=O)Nc1ccn(-c2ccccc2)n1)c1ccccc1 (stereo not drawn) [Compound 166, 2-ethyl-2-methyl-1-phenyl-N-(1-phenylpyrazol-3-yl)cyclopropanecarboxamide] | 630 |
| O=C(Nc1ccn(-c2ccccc2)n1)C(c1ccccc1)C1CCCC1 (stereo not drawn) [Compound 167, 2-cyclopentyl-2-phenyl-N-(1-phenylpyrazol-3-yl)acetamide] | > 5000 |
| CCC1(C)CC1(C(=O)Nc1ccn(-c2ccnc(F)c2)n1)c1ccccc1 (stereo not drawn) [Compound 168, 2-ethyl-N-[1-(2-fluoro-4-pyridyl)pyrazol-3-yl]-2-methyl-1-phenyl-cyclopropanecarboxamide] | 86 |
| CSCC(C(=O)Nc1ccn(-c2ccccc2)n1)c1ccccc1 (stereo not drawn) [Compound 170, 3-methylsulfanyl-2-phenyl-N-(1-phenylpyrazol-3-yl)propanamide] | > 5000 |
| CCC(C(=O)Nc1ccn(-c2ccnc(F)c2)n1)c1ccccc1 (stereo not drawn) [Compound 171, N-[1-(2-fluoro-4-pyridyl)pyrazol-3-yl]-2-phenyl-butanamide] | 140 |
| O=C(Nc1ccn(-c2ccnc(F)c2)n1)C1(c2ccccc2)CC(F)(F)C1 [Compound 172, 3,3-difluoro-N-[1-(2-fluoro-4-pyridyl)pyrazol-3-yl]-1-phenyl-cyclobutanecarboxamide] | 380 |
| CCCC(C(=O)Nc1ccn(-c2ccnc(F)c2)n1)c1ccccc1 (stereo not drawn) [Compound 173, N-(1-(2-fluoropyridin-4-yl)-1H-pyrazol-3-yl)-2-phenylpentanamide] | 72 |

| Structure (SMILES) | IC50 [nM] |
| --- | --- |
| O=C(Nc1ccn(-c2ccnc(F)c2)n1)C1(c2ccccc2)CCOCC1 [Compound 174, N-[1-(2-fluoro-4-pyridyl)pyrazol-3-yl]-4-phenyl-tetrahydropyran-4-carboxamide] | > 5000 |
| O=C(Nc1ccn(-c2ccnc(F)c2)n1)C(c1ccccc1)C1CC1 (stereo not drawn) [Compound 175, 2-cyclopropyl-N-[1-(2-fluoro-4-pyridyl)pyrazol-3-yl]-2-phenyl-acetamide] | 520 |
| CCCC(C(=O)Nc1ccn(-c2ccccc2)n1)c1ccccc1 (stereo not drawn) [Compound 176, 2-phenyl-N-(1-phenylpyrazol-3-yl)pentanamide] | 870 |
| O=C(Nc1ccn(-c2ccccc2)n1)C1(c2ccccc2)CC(F)(F)C1 [Compound 177, 3,3-difluoro-1-phenyl-N-(1-phenylpyrazol-3-yl)cyclobutanecarboxamide] | 790 |
| O=C(Nc1ccn(-c2ccccc2)n1)C1(c2ccccc2)CCOCC1 [Compound 178, 4-phenyl-N-(1-phenylpyrazol-3-yl)tetrahydropyran-4-carboxamide] | > 5000 |
| O=C(Nc1ccn(-c2ccccc2)n1)C(c1ccccc1)C1CC1 (stereo not drawn) [Compound 179, 2-cyclopropyl-2-phenyl-N-(1-phenylpyrazol-3-yl)acetamide] | 1600 |
| O=C(Nc1ccn(-c2cncc(F)c2)n1)C1(c2ccccc2F)CC1 [Compound 180, 1-(2-fluorophenyl)-N-[1-(5-fluoro-3-pyridyl)pyrazol-3-yl]cyclopropanecarboxamide] | 20 |
| O=C(Cc1ccccc1)Nc1ccn(-c2ccc(F)cc2)n1 [Compound 181, N-[1-(4-fluorophenyl)pyrazol-3-yl]-2-phenyl-acetamide] | 250 |
| O=C(Nc1ccn(-c2ccc(F)cc2)n1)C1(c2ccccc2F)CC1 [Compound 182, 1-(2-fluorophenyl)-N-[1-(4-fluorophenyl)pyrazol-3-yl]cyclopropanecarboxamide] | 74 |
| O=C(Cc1ccccc1F)Nc1ccn(-c2ccc(F)cc2)n1 [Compound 183, 2-(2-fluorophenyl)-N-[1-(4-fluorophenyl)pyrazol-3-yl]acetamide] | 170 |
| O=C(Nc1ccn(-c2ccc(F)cc2)n1)C1(c2ccccc2)CC1 [Compound 184, N-[1-(4-fluorophenyl)pyrazol-3-yl]-1-phenyl-cyclopropanecarboxamide] | 280 |
| O=C(Cc1ccccc1)Nc1ccn(-c2ccccc2F)n1 [Compound 185, N-[1-(2-fluorophenyl)pyrazol-3-yl]-2-phenyl-acetamide] | 470 |
| O=C(Nc1ccn(-c2ccccc2F)n1)C1(c2ccccc2F)CC1 [Compound 186, 1-(2-fluorophenyl)-N-(1-(2-fluorophenyl)-1H-pyrazol-3-yl)cyclopropane-1-carboxamide] | 140 |
| O=C(Cc1ccccc1F)Nc1ccn(-c2ccccc2F)n1 [Compound 187, 2-(2-fluorophenyl)-N-[1-(2-fluorophenyl)pyrazol-3-yl]acetamide] | 520 |
| O=C(Nc1ccn(-c2ccccc2F)n1)C1(c2ccccc2)CC1 [Compound 188, N-[1-(2-fluorophenyl)pyrazol-3-yl]-1-phenyl-cyclopropanecarboxamide] | 140 |
| O=C(Cc1ccccc1)Nc1ccn(-c2ccc(F)c(F)c2)n1 [Compound 189, N-[1-(3,4-difluorophenyl)pyrazol-3-yl]-2-phenyl-acetamide] | 230 |
| O=C(Nc1ccn(-c2ccc(F)c(F)c2)n1)C1(c2ccccc2F)CC1 [Compound 190, N-[1-(3,4-difluorophenyl)pyrazol-3-yl]-1-(2-fluorophenyl)cyclopropanecarboxamide] | 150 |
| O=C(Cc1ccccc1F)Nc1ccn(-c2ccc(F)c(F)c2)n1 [Compound 191, N-[1-(3,4-difluorophenyl)pyrazol-3-yl]-2-(2-fluorophenyl)acetamide] | 240 |
| O=C(Nc1ccn(-c2ccc(F)c(F)c2)n1)C1(c2ccccc2)CC1 [Compound 192, N-[1-(3,4-difluorophenyl)pyrazol-3-yl]-1-phenyl-cyclopropanecarboxamide] | 600 |
| O=C(Cc1ccccc1)Nc1ccn(-c2ccc(Cl)c(F)c2)n1 [Compound 193, N-[1-(4-chloro-3-fluoro-phenyl)pyrazol-3-yl]-2-phenyl-acetamide] | > 5000 |
| O=C(Nc1ccn(-c2ccc(Cl)c(F)c2)n1)C1(c2ccccc2F)CC1 [Compound 194, N-[1-(4-chloro-3-fluoro-phenyl)pyrazol-3-yl]-1-(2-fluorophenyl)cyclopropanecarboxamide] | > 5000 |
| O=C(Cc1ccccc1F)Nc1ccn(-c2ccc(Cl)c(F)c2)n1 [Compound 195, N-[1-(4-chloro-3-fluoro-phenyl)pyrazol-3-yl]-2-(2-fluorophenyl)acetamide] | > 2000 |
